From US8906925B2, “Pyrido[4,3-B]indoles containing rigid moieties” (Medivation Technologies, Inc., priority 2008, dated 2014)

What was measured:
histamine receptor H1 = histamine receptor H1 (Homo sapiens, UniProt P35367); assay: Histamine H1 radioligand binding ([3H]Pyrilamine); settings: read-out: Histamine Binding (1 μM) H1, percent inhibition of specific binding, 1 μM
Outline: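 Values are percent inhibition of specific [3H]pyrilamine (1.2 nM) binding with compounds at ≤1 μM (1% DMSO vehicle); 180 min incubation at 25 °C, pH 7.4 Tris buffer, on CHO-expressed human H1 receptor; 1 μM pyrilamine defined nonspecific binding, bound ligand counted after filtration.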

[1] = molecular target: T1, human recombinant histamine H2 receptor (Homo sapiens, UniProt P25021); assay: Histamine H2 radioligand binding ([125I]Aminopotentidine); settings: read-out: Histamine Binding (1 μM) H2, percent inhibition of specific binding, 1 μM
T1 construct: expressed in transfected cells; host or cells: Chinese hamster ovary (CHO) K1 cells
Description: To evaluate in radioligand binding assays the activity of compounds of the invention, human recombinant histamine H2 receptor expressed in Chinese hamster ovary (CHO) K1 cells (Ruat, M., Proc. Natl. Acad. Sci. USA. 87(5):1658, 1990) in a 50 mM Phosphate buffer, pH 7.4 was used. Compounds of the invention were incubated with 0.1 nM [^125I]Aminopotentidine for 120 min. at 25° C. Non-specific binding was estimated in the presence of 3 μM Tiotidine. Receptor proteins were filtered and washed, the filters were then counted to determine [^125I]Aminopotentidine specifically bound.

[2] = molecular target: human dopamine D2L receptor (Homo sapiens, UniProt P14416); assay: Dopamine D2L radioligand binding ([3H]Spiperone); settings: percent inhibition of specific binding, compound at 1 μM; for inhibition at 1 µM: read-out: Inhibition of ligand binding, Dopamine D2L
Text: Non-specific binding was estimated in the presence of […] Haloperidol. Receptor proteins were filtered and washed, the filters were then counted to determine [^3H]Spiperone specifically bound. […] Biochemical assay results are presented as the percent inhibition of specific binding in Table 9.

[3] = molecular target: T2, human recombinant serotonin (5-Hydroxytryptamine) 5-HT2A receptor (Homo sapiens, UniProt P28223); assay: Serotonin 5-HT2A radioligand binding ([3H]Ketanserin); settings: for inhibition at 0.1 µM: read-out: Inhibition of ligand binding, Serotonin 5-HT2A (percent inhibition of specific binding), compound at 0.1 μM
T2 construct: expressed in transfected cells; host or cells: Chinese hamster ovary (CHO-K1) cells
Description: (§1) Compounds of the invention were incubated with 0.5 nM [^3H]Ketanserin for 60 min. at 25° C. Non-specific binding was estimated in the presence of 1 μM Mianserin. Receptor proteins were filtered and washed, the filters were then counted to determine [^3H]Ketanserin specifically bound.

[4] = molecular target: T3, human recombinant serotonin (5-Hydroxytryptamine) 5-HT2C receptor (Homo sapiens, UniProt P28335); assay: Serotonin 5-HT2C radioligand binding ([3H]Mesulergine)
T3 construct: expressed in transfected cells; host or cells: Chinese hamster ovary (CHO-K1) cells
T3 sequence (P28335 33-458): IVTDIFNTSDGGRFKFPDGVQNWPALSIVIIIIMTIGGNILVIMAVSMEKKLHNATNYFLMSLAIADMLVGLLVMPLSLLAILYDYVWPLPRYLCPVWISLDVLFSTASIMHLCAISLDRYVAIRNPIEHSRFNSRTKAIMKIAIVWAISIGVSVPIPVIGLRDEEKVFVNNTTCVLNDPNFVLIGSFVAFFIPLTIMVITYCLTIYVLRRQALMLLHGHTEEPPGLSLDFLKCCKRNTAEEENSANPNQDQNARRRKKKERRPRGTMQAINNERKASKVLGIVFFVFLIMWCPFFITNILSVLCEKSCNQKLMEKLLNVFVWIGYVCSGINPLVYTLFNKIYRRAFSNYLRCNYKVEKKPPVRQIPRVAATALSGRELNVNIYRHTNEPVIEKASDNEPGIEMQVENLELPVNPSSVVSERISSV
Description: as §1, with “1” for “0.5”, “[^3H]Mesulergine” for “[^3H]Ketanserin”, “bound. Compounds were screened at 1 μM or lower, using 1% DMSO as vehicle. Biochemical assay results are presented as the percent inhibition of specific binding in Table 10.” for “bound.”

[5] = molecular target: T4, human recombinant serotonin (5-Hydroxytryptamine) 5-HT6 receptor (Homo sapiens, UniProt P50406); assay: Serotonin 5-HT6 radioligand binding ([3H]LSD)
T4 construct: expressed in transfected cells; host or cells: human HeLa cells
Description: Compounds of the invention were incubated with 1.5 nM [3H]Lysergic acid diethylamide (LSD) for 120 min. at 37° C. […] Receptor proteins were filtered and washed, the filters were then counted to determine [3H]LSD specifically bound. Compounds were screened at 1 μM or lower, using 1% DMSO as vehicle. Biochemical assay results are presented as the percent inhibition of specific binding in Table 10.

[6] = molecular target: human recombinant serotonin (5-Hydroxytryptamine) 5-HT7 receptor (Homo sapiens, UniProt P34969); assay: Serotonin 5-HT7 radioligand binding ([3H]LSD)
Text: Receptor proteins were filtered and washed, the filters were then counted to determine [^3H]LSD specifically bound.

[7] = compound at 0.1 μM, read-out: Inhibition of ligand binding, Serotonin 5-HT2C (percent inhibition of specific binding)
[8] = compound at 0.1 μM, read-out: Inhibition of ligand binding, Serotonin 5-HT6 (percent inhibition of specific binding)
[9] = compound at 0.1 μM, read-out: Inhibition of ligand binding, Serotonin 5-HT7 (percent inhibition of specific binding)

human recombinant serotonin (5-Hydroxytryptamine) 5-HT7 receptor, sequence (P34969 whole entry): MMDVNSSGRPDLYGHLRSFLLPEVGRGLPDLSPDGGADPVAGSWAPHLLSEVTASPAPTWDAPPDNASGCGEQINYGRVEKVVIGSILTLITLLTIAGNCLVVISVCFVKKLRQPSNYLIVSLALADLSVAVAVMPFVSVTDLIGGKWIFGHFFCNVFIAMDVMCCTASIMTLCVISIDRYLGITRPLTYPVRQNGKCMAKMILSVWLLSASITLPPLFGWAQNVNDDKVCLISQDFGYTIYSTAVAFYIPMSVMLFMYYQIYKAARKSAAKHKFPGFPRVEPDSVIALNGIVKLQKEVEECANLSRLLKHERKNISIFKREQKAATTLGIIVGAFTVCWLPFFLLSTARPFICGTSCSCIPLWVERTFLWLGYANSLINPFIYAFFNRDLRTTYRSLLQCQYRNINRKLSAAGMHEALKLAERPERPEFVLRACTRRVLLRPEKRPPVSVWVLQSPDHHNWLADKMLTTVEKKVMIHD
T2 sequence (P28223 whole entry): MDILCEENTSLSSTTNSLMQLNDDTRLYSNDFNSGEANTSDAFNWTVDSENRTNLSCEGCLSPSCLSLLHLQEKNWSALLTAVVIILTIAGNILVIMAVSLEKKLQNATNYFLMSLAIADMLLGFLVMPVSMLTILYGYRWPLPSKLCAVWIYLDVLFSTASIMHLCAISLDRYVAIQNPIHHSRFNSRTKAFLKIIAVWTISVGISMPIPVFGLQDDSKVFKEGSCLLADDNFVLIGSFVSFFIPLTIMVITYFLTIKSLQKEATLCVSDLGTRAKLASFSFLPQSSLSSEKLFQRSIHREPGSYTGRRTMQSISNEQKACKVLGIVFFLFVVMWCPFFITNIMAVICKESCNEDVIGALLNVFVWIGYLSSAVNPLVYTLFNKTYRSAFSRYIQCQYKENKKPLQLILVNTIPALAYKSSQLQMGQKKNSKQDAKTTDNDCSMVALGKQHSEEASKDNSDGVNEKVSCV
T4 sequence (P50406 whole entry): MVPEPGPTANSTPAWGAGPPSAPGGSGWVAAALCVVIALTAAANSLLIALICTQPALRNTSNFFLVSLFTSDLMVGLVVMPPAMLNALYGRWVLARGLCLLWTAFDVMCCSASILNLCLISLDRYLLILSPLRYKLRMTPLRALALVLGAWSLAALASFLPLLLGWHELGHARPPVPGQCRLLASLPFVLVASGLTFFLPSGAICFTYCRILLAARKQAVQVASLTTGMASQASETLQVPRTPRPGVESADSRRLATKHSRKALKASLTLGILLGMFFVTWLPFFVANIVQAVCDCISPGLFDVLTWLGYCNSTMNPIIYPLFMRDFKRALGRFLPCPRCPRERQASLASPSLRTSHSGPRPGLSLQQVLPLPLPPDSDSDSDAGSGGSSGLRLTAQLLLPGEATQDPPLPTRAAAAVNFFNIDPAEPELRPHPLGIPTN
human dopamine D2L receptor, sequence (P14416 whole entry): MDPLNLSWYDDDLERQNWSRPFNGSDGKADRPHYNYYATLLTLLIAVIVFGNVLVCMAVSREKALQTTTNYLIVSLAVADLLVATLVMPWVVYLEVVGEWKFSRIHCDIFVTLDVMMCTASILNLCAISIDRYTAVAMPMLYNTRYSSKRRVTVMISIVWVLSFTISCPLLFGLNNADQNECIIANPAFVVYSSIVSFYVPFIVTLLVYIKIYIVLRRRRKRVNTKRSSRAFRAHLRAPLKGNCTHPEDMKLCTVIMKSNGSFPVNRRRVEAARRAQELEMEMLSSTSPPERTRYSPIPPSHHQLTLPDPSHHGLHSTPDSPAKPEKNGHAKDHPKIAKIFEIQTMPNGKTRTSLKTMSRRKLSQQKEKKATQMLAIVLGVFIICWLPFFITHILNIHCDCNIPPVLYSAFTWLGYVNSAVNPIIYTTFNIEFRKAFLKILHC
histamine receptor H1, sequence (P35367 whole entry): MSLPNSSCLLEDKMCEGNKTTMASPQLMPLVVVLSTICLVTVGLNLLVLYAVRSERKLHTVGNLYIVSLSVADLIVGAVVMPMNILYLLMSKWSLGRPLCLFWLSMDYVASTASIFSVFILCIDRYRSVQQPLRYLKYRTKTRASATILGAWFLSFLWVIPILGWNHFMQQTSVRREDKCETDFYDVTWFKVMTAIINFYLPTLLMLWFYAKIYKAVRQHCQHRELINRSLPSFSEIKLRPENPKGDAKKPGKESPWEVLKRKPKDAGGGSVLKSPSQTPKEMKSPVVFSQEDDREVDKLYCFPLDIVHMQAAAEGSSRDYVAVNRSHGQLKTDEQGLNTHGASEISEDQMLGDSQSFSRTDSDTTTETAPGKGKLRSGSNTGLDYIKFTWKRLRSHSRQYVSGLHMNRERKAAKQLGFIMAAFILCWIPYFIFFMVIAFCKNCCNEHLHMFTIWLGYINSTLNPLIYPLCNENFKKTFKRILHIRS
T1 sequence (P25021 whole entry): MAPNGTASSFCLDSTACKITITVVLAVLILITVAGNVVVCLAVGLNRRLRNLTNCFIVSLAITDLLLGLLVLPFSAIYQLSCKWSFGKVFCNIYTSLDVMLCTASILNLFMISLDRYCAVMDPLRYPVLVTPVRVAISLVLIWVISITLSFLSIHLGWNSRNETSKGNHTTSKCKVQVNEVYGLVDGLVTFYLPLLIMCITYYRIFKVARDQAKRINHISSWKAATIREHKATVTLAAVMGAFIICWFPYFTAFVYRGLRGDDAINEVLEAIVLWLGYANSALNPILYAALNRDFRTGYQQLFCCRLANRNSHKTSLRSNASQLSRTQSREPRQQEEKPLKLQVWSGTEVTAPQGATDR

## C/C(=C\n1c2c(c3cc(Cl)ccc31)CN(C)CC2)c1cccnc1 [Compound 86, (E)-8-chloro-2,3,4,5-tetrahydro-2-methyl-5-(2-(pyridin-3-yl)prop-1-enyl)-1H-pyrido[4,3-b]indole]
Histamine receptor H1
  inhibition at 1 µM: 72%
[1]
  inhibition at 1 µM: 54%
[2]
  inhibition at 1 µM: 40%
[3]; read-out: Inhibition of ligand binding, Serotonin 5-HT2A (percent inhibition of specific binding), compound at 1 μM
  inhibition at 1 µM: 95%
[4]; compound at 1 μM, read-out: Inhibition of ligand binding, Serotonin 5-HT2C (percent inhibition of specific binding)
  inhibition at 1 µM: 94%
[5]; compound at 1 μM, read-out: Inhibition of ligand binding, Serotonin 5-HT6 (percent inhibition of specific binding)
  inhibition at 1 µM: 77%
[6]; compound at 1 μM, read-out: Inhibition of ligand binding, Serotonin 5-HT7 (percent inhibition of specific binding)
  inhibition at 1 µM: 93%

## CCN1CCc2c(c3cc(C)ccc3n2/C=C(\C)c2ccncc2)C1 [Compound 269, (E)-2-ethyl-8-methyl-5-(2-(pyridin-4-yl)prop-1-enyl)-2,3,4,5-tetrahydro-1H-pyrido[4,3-b]indole]
Histamine receptor H1
  inhibition at 1 µM: -2%
[2]
  inhibition at 1 µM: 91%
[3]
  inhibition at 0.1 µM: 87%
[4]; [7]
  inhibition at 0.1 µM: 55%
[5]; [8]
  inhibition at 0.1 µM: 102%
[6]; [9]
  inhibition at 0.1 µM: 51%

## CCc1ccc2c(c1)c1c(n2/C=C(\C)c2ccncc2)CCN(C)C1 [Compound 270, (E)-8-ethyl-2-methyl-5-(2-(pyridin-4-yl)prop-1-enyl)-2,3,4,5-tetrahydro-1H-pyrido[4,3-b]indole]
Histamine receptor H1
  inhibition at 1 µM: 19%
[2]
  inhibition at 1 µM: 88%
[3]
  inhibition at 0.1 µM: 92%
[4]; [7]
  inhibition at 0.1 µM: 84%
[5]; [8]
  inhibition at 0.1 µM: 97%
[6]; [9]
  inhibition at 0.1 µM: 79%

## C/C(=C\n1c2c(c3cc(C(C)(C)C)ccc31)CN(C)CC2)c1ccncc1 [Compound 271, (E)-8-tert-butyl-2-methyl-5-(2-(pyridin-4-yl)prop-1-enyl)-2,3,4,5-tetrahydro-1H-pyrido[4,3-b]indole]
Histamine receptor H1
  inhibition at 1 µM: -16%
[2]
  inhibition at 1 µM: 63%
[3]
  inhibition at 0.1 µM: 41%
[4]; [7]
  inhibition at 0.1 µM: 19%
[5]; [8]
  inhibition at 0.1 µM: 90%
[6]; [9]
  inhibition at 0.1 µM: 10%

## C/C(=C\n1c2c(c3cc(C)ccc31)CN(C(C)C)CC2)c1ccncc1 [Compound 272, (E)-2-isopropyl-8-methyl-5-(2-(pyridin-4-yl)prop-1-enyl)-2,3,4,5-tetrahydro-1H-pyrido[4,3-b]indole]
Histamine receptor H1
  inhibition at 1 µM: 48%
[2]
  inhibition at 1 µM: 85%
[3]
  inhibition at 0.1 µM: 62%
[4]; [7]
  inhibition at 0.1 µM: 40%
[5]; [8]
  inhibition at 0.1 µM: 98%
[6]; [9]
  inhibition at 0.1 µM: -1%

## C/C(=C\n1c2c(c3cc(Cl)ccc31)CN(C)C(C)C2)c1ccc(C)nc1 (stereo not shown) [Compound 273, (E)-8-chloro-2,3-dimethyl-5-(2-(6-methylpyridin-3-yl)prop-1-enyl)-2,3,4,5-tetrahydro-1H-pyrido[4,3-b]indole]
Histamine receptor H1
  inhibition at 1 µM: 41%
[2]
  inhibition at 1 µM: 12%
[3]
  inhibition at 0.1 µM: 94%
[4]; [7]
  inhibition at 0.1 µM: 100%
[5]; [8]
  inhibition at 0.1 µM: 46%
[6]; [9]
  inhibition at 0.1 µM: 85%

## C/C(=C\n1c2c(c3cc(Cl)ccc31)CN(C)C(C)C2)c1ccncc1 (stereo not shown) [Compound 275, (E)-8-chloro-2,3-dimethyl-5-(2-(pyridin-4-yl)prop-1-enyl)-2,3,4,5-tetrahydro-1H-pyrido[4,3-b]indole]
Histamine receptor H1
  inhibition at 1 µM: 39%
[2]
  inhibition at 1 µM: 92%
[3]
  inhibition at 0.1 µM: 93%
[4]; [7]
  inhibition at 0.1 µM: 98%
[5]; [8]
  inhibition at 0.1 µM: 101%
[6]; [9]
  inhibition at 0.1 µM: 72%

## C/C(=C\n1c2c(c3cc(C)ccc31)CN(C)CC2)c1ccc(F)cc1F [Compound 276, (E)-5-(2-(2,4-difluorophenyl)prop-1-enyl)-2,8-dimethyl-2,3,4,5-tetrahydro-1H-pyrido[4,3-b]indole]
Histamine receptor H1
  inhibition at 1 µM: 63%
[2]
  inhibition at 1 µM: 82%
[3]
  inhibition at 0.1 µM: 99%
[4]; [7]
  inhibition at 0.1 µM: 96%
[5]; [8]
  inhibition at 0.1 µM: 81%
[6]; [9]
  inhibition at 0.1 µM: 86%

## C/C(=C\n1c2c(c3cc(Cl)ccc31)CN(C)CC2)c1ccc(F)cc1F [Compound 277, (E)-8-chloro-5-(2-(2,4-difluorophenyl)prop-1-enyl)-2-methyl-2,3,4,5-tetrahydro-1H-pyrido[4,3-b]indole]
Histamine receptor H1
  inhibition at 1 µM: 95%
[2]; 1 µM
  Inhibition of ligand binding, Dopamine D2L: 98%
[3]; compound at 0.1 μM, 0.1 µM
  Inhibition of ligand binding, Serotonin 5-HT2A (percent inhibition of specific binding): 100%
[4]; compound at 0.1 μM, 0.1 µM
  Inhibition of ligand binding, Serotonin 5-HT2C (percent inhibition of specific binding): 98%
[5]; compound at 0.1 μM, 0.1 µM
  Inhibition of ligand binding, Serotonin 5-HT6 (percent inhibition of specific binding): 98%
[6]; compound at 0.1 μM, 0.1 µM
  Inhibition of ligand binding, Serotonin 5-HT7 (percent inhibition of specific binding): 103%

## C/C(=C\n1c2c(c3cc(C)ccc31)CN(C)CC2)c1ccccn1 [Compound 278, (E)-2,8-dimethyl-5-(2-(pyridin-2-yl)prop-1-enyl)-2,3,4,5-tetrahydro-1H-pyrido[4,3-b]indole]
Histamine receptor H1
  inhibition at 1 µM: 24%
[2]
  inhibition at 1 µM: 51%
[3]
  inhibition at 0.1 µM: 88%
[4]; [7]
  inhibition at 0.1 µM: 91%
[5]; [8]
  inhibition at 0.1 µM: 69%
[6]; [9]
  inhibition at 0.1 µM: 79%

## C/C(=C\n1c2c(c3cc(C)ccc31)CN(C)CC2)c1ccncn1 [Compound 279, (E)-2,8-dimethyl-5-(2-(pyrimidin-4-yl)prop-1-enyl)-2,3,4,5-tetrahydro-1H-pyrido[4,3-b]indole]
Histamine receptor H1
  inhibition at 1 µM: 21%
[2]
  inhibition at 1 µM: 69%
[3]
  inhibition at 0.1 µM: 75%
[4]; [7]
  inhibition at 0.1 µM: 70%
[5]; [8]
  inhibition at 0.1 µM: 90%
[6]; [9]
  inhibition at 0.1 µM: 53%

## Cc1ccc2c(c1)c1c(n2/C=C(/c2ccncc2)C(C)(C)C)CCN(C)C1 [Compound 280, (E)-5-(3,3-dimethyl-2-(pyridin-4-yl)but-1-enyl)-2,8-dimethyl-2,3,4,5-tetrahydro-1H-pyrido[4,3-b]indole]
Histamine receptor H1
  inhibition at 1 µM: 12%
[2]
  inhibition at 1 µM: 52%
[3]
  inhibition at 0.1 µM: 83%
[4]; [7]
  inhibition at 0.1 µM: 86%
[5]; [8]
  inhibition at 0.1 µM: 56%
[6]; [9]
  inhibition at 0.1 µM: 20%

## CC/C(=C/n1c2c(c3cc(C)ccc31)CN(C)CC2)c1ccncc1 [Compound 281, (Z)-2,8-dimethyl-5-(2-(pyridin-4-yl)but-1-enyl)-2,3,4,5-tetrahydro-1H-pyrido[4,3-b]indole]
Histamine receptor H1
  inhibition at 1 µM: 42%
[2]
  inhibition at 1 µM: 51%
[3]
  inhibition at 0.1 µM: 103%
[4]; [7]
  inhibition at 0.1 µM: 96%
[5]; [8]
  inhibition at 0.1 µM: 78%
[6]; [9]
  inhibition at 0.1 µM: 93%

## CC/C(=C/n1c2c(c3cc(Cl)ccc31)CN(C)CC2)c1ccncc1 [Compound 282, (Z)-8-chloro-2-methyl-5-(2-(pyridin-4-yl)but-1-enyl)-2,3,4,5-tetrahydro-1H-pyrido[4,3-b]indole]
Histamine receptor H1
  inhibition at 1 µM: 31%
[2]
  inhibition at 1 µM: 57%
[3]
  inhibition at 0.1 µM: 100%
[4]; [7]
  inhibition at 0.1 µM: 94%
[5]; [8]
  inhibition at 0.1 µM: 102%
[6]; [9]
  inhibition at 0.1 µM: 91%
